From US20180312473A1, “PHENAZINE DERIVATIVES AS ANTIMICROBIAL AGENTS” (priority 2015, published 2018)
pIC50: −log10 of the molar value. Converted amounts (≈) assume the structure as drawn. Read-outs that look alike come from different tables or passages of the source.

Key:
A. baumannii 19606 = experiment: MIC assay (broth microdilution, CLSI); type: cell-based, Acinetobacter baumannii; details: Acinetobacter baumannii, 19606, read-out: A. baumannii 19606 MIC
K. pneumoniae 13883 = experiment: MIC assay (broth microdilution, CLSI); type: cell-based, Klebsiella pneumoniae; details: Klebsiella pneumoniae, 13883, read-out: K. pneumoniae 13883 MIC
[1] = system: MRSA-1 (methicillin-resistant Staphylococcus aureus clinical isolate); experiment: MIC assay (broth microdilution, CLSI); type: cell-based; details: read-out: MIC, MRSA-1
E. coli UAEC-1 = experiment: MIC assay (broth microdilution, CLSI); type: cell-based; details: Escherichia coli, UAEC1, read-out: E. coli UAEC-1 MIC
MRSA BAA-1707 = experiment: MIC assay (broth microdilution, CLSI); details: Staphylococcus aureus, read-out: MIC, MRSA BAA-1707
[2] = system: MRSA-2 planktonic cells and biofilms; experiment: Calgary Biofilm Device (CBD) assay, MBC/MBEC; type: cell-based, Staphylococcus aureus; details: for MBC: Staphylococcus aureus, MRSA
P. aeruginosa (PAO1) = experiment: MIC assay (broth microdilution, CLSI); type: cell-based; details: Pseudomonas aeruginosa, PAO1, read-out: PAO1 MIC
[3] = system: Staphylococcus epidermidis (ATCC 12228); experiment: MIC assay (broth microdilution, CLSI); type: cell-based; details: Staphylococcus epidermidis
MRSA BAA-44 = experiment: MIC assay (broth microdilution, CLSI); details: Staphylococcus aureus, read-out: MIC, MRSA BAA-44
[4] = system: MRSA-2 (methicillin-resistant Staphylococcus aureus clinical isolate); experiment: MIC assay (broth microdilution, CLSI); type: cell-based; details: for MIC: read-out: MIC, MRSA-2
human red blood cells = experiment: Hemolysis assay with red blood cells; details: 200 μM
Method: The hemolysis activities of select compounds of the invention were determined. […] The washing was repeated three times with the buffer. In 96-well plate, test compounds were added to the buffer from DMSO stocks. […] The plate was then incubated for 1 hour at 37° C. After incubation, the plate was centrifuged for 5 minutes at 3,500 rpm. Then 80 μL of the supernatant was transferred to another 96-well plate, and the optical density (OD) was read at 405 nm. DMSO served as the negative control (0% hemolysis), while Triton X served as the positive control (100% hemolysis). The percent of hemolysis was calculated as (OD405 of the compound−OD405 of DMSO)/(OD405 of Triton X−OD405 of the buffer).
The washing was repeated three times with the buffer. In 96-well plate, test compounds were added to the buffer from DMSO stocks. […] The plate was then incubated for 1 hour at 37° C. After incubation, the plate was centrifuged for 5 minutes at 3,500 rpm. Then 80 μL of the supernatant was transferred to another 96-well plate and the optical density (OD) was read at 405 nm. DMSO served as our negative control (0% hemolysis) while Triton X served as our positive control (100% hemolysis). The percent of hemolysis was calculated as (OD405 of the test compound−OD405 DMSO)/(OD405 Triton X−OD405 buffer) from three independent experiments.

[5] = system: methicillin-resistant S. aureus (MRSA) strains; experiment: MIC assay, values summarised over MRSA strains; type: cell-based, Staphylococcus aureus
[6] = system: Enterococcus faecium (ATCC 700221), VRE; experiment: MIC assay (broth microdilution, CLSI); type: cell-based
[7] = system: VRE (E. faecium ATCC 700221) planktonic cells and biofilms; experiment: Calgary Biofilm Device (CBD) assay, MBC/MBEC; type: cell-based, Enterococcus faecium; details: Enterococcus; Table 8; c lowest concentration tested; read-out: VRE 700221 MBC
[8] = system: MRSE (S. epidermidis ATCC 35984) planktonic cells and biofilms; experiment: Calgary Biofilm Device (CBD) assay, MBC/MBEC; type: cell-based, Staphylococcus epidermidis; details: Staphylococcus epidermidis; Table 8; read-out: MRSE 35984 MBC
HeLa cells = experiment: in vitro; type: cell-based; details: human, 24 h
Method: (§1) The cytotoxicities of select compounds of the invention against HeLa cells were determined. HeLa cytotoxicity was assessed using the LDH release assay described by CYTOTOX96 (Promega G1780). HeLa cells were grown in Dulbecco's Modified Eagle Medium (DMEM; Gibco) supplemented with 10% Fetal Bovine Serum (FBS) at 37° C. with 5% CO2. […] Triton X-100 (at 2% v/v) was used as the positive control for maximum lactate dehydrogenate (LDH) activity in this assay (e.g., complete cell death), while “medium only” lanes served as negative control lanes (e.g., no cell death). DMSO was used as the vehicle control. […] Finally, Stop Solution (50 μL) was added to the incubating plates, and the absorbance was measured at 490 nm.
(§2) HeLa cytotoxicity was assessed using the LDH release assay described by CYTOTOX96 (Promega G1780). HeLa cells were grown in Dulbecco's Modified Eagle Medium (DMEM; Gibco) supplemented with 10% Fetal Bovine Serum (FBS) at 37° C. with 5% CO2. […] Triton X-100 (at 2% v/v) was used as the positive control for maximum lactate dehydrogenate (LDH) activity in this assay (e.g., complete cell death), while “medium only” lanes served as negative control lanes (e.g., no cell death). DMSO was used as our vehicle control. […] Finally, Stop Solution (50 μL) was added to the incubating plates and the absorbance was measured at 490 nm. Results are from three independent experiments (FIG. 19)

in vitro = type: cell-based; details: human
Method: as §1, §2

[9] = system: Staphylococcus epidermidis (ATCC 35984), MRSE; experiment: MIC assay (broth microdilution, CLSI); type: cell-based; details: Staphylococcus epidermidis

Question: Which results are given for Oc1c(Br)cc(Br)c2nc3cc4ccccc4cc3nc12 [Compound 19]?
Answer: MIC (A. baumannii 19606): > 100 µM; MIC (K. pneumoniae 13883): > 100 µM; MIC ([1]; Staphylococcus aureus, MRSA): 12.5 µM (≈ 5.05 µg/mL); MIC ([1]; Table 2B, b lowest concentration tested): 12.5 µM (≈ 5.05 µg/mL); MIC (E. coli UAEC-1): > 100 µM; MIC (MRSA BAA-1707): 50 µM (≈ 20.2 µg/mL); MBC ([2]; read-out: MBC, MRSA-2): 200 µM (≈ 80.8 µg/mL); MBC ([2]; read-out: MRSA-2 MBC): 200 µM (≈ 80.8 µg/mL); MRSA-2 MBC ([2]; Table 8, a/b 2-/4-fold range in independent experiments): 200/>200 μM; MIC (P. aeruginosa (PAO1)): > 100 µM; MIC ([3]; ATCC12228, read-out: MIC, S. epidermidis 12228): 12.5 µM (≈ 5.05 µg/mL); MIC ([3]; ATCC12228, read-out: MIC, Staphylococcus epidermidis (ATCC 12228)): 12.5 µM (≈ 5.05 µg/mL); MIC (MRSA BAA-44): 75 µM (≈ 30.3 µg/mL); MIC ([4]; Staphylococcus aureus, MRSA): > 100 µM; MIC, MRSA-2 ([4]; Table 2B, a midpoint of 2-fold range, * partial growth inhibition at highest concentration): >100* μM; MIC ([4]; Table 7, a midpoint of 2-fold range, b lowest concentration tested): >100 µM; % Hemolysis (200 μM) (human red blood cells; 1 h, 37 °C): ≤1%; % Hemolysis at 200 μM (human red blood cells; red blood cells): <1%; % Hemolysis at 200 μM (human red blood cells; Table 8, human red blood cells): ≤1%

Question: Which “growth inhibition activity against at least one MRSA strain” value [5] does the source give for Oc1c(Br)cc(Cl)c2nc3ccccc3nc12 [Compound 7, 2-Bromo-4-chloro-1-hydroxyphenazine] here?
Answer: The value was “sub-micromolar”.

Question: What about the MIC ([6]; Enterococcus faecium, Table 2A, read-out: MIC, Enterococcus faecium (ATCC 700221)) of the same compound?
Answer: Its MIC is 6.25 µM (≈ 1.93 µg/mL).

Question: And the MIC ([6]; Table 7, b lowest concentration tested, read-out: MIC, VRE 700221)?
Answer: The MIC was 6.25 µM (≈ 1.93 µg/mL).

Question: What about the MBC [7] of the same compound?
Answer: Its MBC is 7.8 µM (≈ 2.41 µg/mL).

Question: And the MBC [8]?
Answer: The MBC was 11.7 µM (≈ 3.62 µg/mL).

Question: What about the MBC ([2]; Table 4, read-out: MBC, MRSA-2) of the same compound?
Answer: Its MBC is 46.9 µM (≈ 14.5 µg/mL).

Question: And the MBC ([2]; Table 8, a/b 2-/4-fold range in independent experiments, read-out: MRSA-2 MBC)?
Answer: Its MBC is 46.9 µM (≈ 14.5 µg/mL).

Question: And the melting point?
Answer: The melting point was 212 to 214 °C.

Question: And the pIC50 (HeLa cells)?
Answer: Its pIC50 is less than 4.00.

Question: What about the IC50 at 24 h (in vitro) of the same compound?
Answer: The IC50 at 24 h was greater than 100 µM.

Question: What about the MIC ([3]; ATCC12228, Table 2A, read-out: MIC, Staphylococcus epidermidis (ATCC 12228)) of the same compound?
Answer: Its MIC is 1.56 to 3.13 µM (≈ 0.483 to 0.969 µg/mL).

Question: What about the MIC ([3]; ATCC12228, Table 7, b lowest concentration tested, read-out: MIC, S. epidermidis 12228) of the same compound?
Answer: Its MIC is 2.35 µM (≈ 0.727 µg/mL).

Question: What about the MIC (MRSA BAA-44) of the same compound?
Answer: Its MIC is 1.56 µM (≈ 0.483 µg/mL).

Question: And the MIC ([4]; Staphylococcus aureus, MRSA, Table 2A)?
Answer: The MIC was 1.56 µM (≈ 0.483 µg/mL).

Question: And the MIC ([4]; Staphylococcus aureus, MRSA, Table 7, a midpoint of 2-fold range, b lowest concentration tested)?
Answer: Its MIC is 1.56 µM (≈ 0.483 µg/mL).

Question: What about the “% Hemolysis (200 μM)” value (human red blood cells; human, 1 h, pH 7.2) of the same compound?
Answer: The value was no more than 1%.

Question: What about the “% Hemolysis at 200 μM” value (human red blood cells; human, 1 h, pH 7.2) of the same compound?
Answer: Its value is no more than 1%.

Question: What about the MIC ([9]; Table 2A, read-out: MIC, Staphylococcus epidermidis (ATCC 35984)) of the same compound?
Answer: Its MIC is 1.56 µM (≈ 0.483 µg/mL).

Question: What about the MIC ([9]; Table 7, read-out: MIC, MRSE 35984) of the same compound?
Answer: Its MIC is 1.56 µM (≈ 0.483 µg/mL).
